Data published in patent publication US20100111965A1, “COMBINATION THERAPY” (FUSION ANTIBODIES LIMITED, priority 2006, published 2010).

Assays:
[1] = system: HCT116; experiment: RT-PCR of AREG RNA in HCT116 cells after chemotherapy; assay type: cell-based, human; conditions: IC50 dose, 48 hours
Procedure: FIG. 1B illustrates analysis of AREG and beta actin RNA expression in HCT116 +/+ with/without a 48 hour CPT11 treatment. RNA levels were analyzed following 35 cycles of PCR to determine relative differences in expression between treated and untreated samples;
FIG. 6 illustrates AREG upregulation following chemotherapeutic challenge in A) HT29, B) HCT116 and C) MDA-MB231 cells. Cells were treated with/without chemotherapy for 48 hours. RT-PCR was performed with 1 μg of total RNA using primer pairs specific for the human AREG gene or GAPDH. The PCR products were separated on 1.5% agarose gel electrophoresis and visualized by ethidium bromide staining.
Cells in a log phase of growth were seeded into T75 flask at ˜20% confluence and incubated overnight to allow adherence to the plate. […] Chemotherapy was substituted with saline in control flasks. After different time exposure to chemotherapy the cells were harvested, washed 3 times in PBS and total RNA was isolated using the RNA TAT-60 reagent according to the manufacturer instructions. […]
Semi quantitative RT-PCR was performed using a PTC 225 Gradient Cycler (MJ Research Incorporated. The PCR mixture, in a final volume of 25 μL, contains 12.5 μL of 2× Biomix (Bioline, UK), 2 μL of primers (10 μmol/L), 1 μL of cDNA and 9.5 μL of dH2O). […]

[2] = system: RKO +/+; experiment: Semi quantitative RT-PCR of AREG RNA in RKO cells after chemotherapy; assay type: cell-based, human; conditions: 48 h after treatment, 7.5 μM
Procedure: FIG. 1A illustrates analysis of AREG and beta actin RNA expression in RKO +/+ with/without either a 48 hour CPT11 treatment or 5-Fu treatment. RNA levels were analyzed following 35 cycle of PCR to determine relative differences in expression between treated and untreated samples;
(§1) Cells in a log phase of growth were seeded into T75 flask at ˜20% confluence and incubated overnight to allow adherence to the plate. […] Chemotherapy was substituted with saline in control flasks. After different time exposure to chemotherapy the cells were harvested, washed 3 times in PBS and total RNA was isolated using the RNA TAT-60 reagent according to the manufacturer instructions.
(§2) Reverse transcription was performed with 2.5 μg of RNA using a High Capacity cDNA Archive kit (Applied Biosystem) according to the instruction of the manufacturer.
(§3) Semi quantitative RT-PCR was performed using a PTC 225 Gradient Cycler (MJ Research Incorporated. The PCR mixture, in a final volume of 25 μL, contains 12.5 μL of 2× Biomix (Bioline, UK), 2 μL of primers (10 μmol/L), 1 μL of cDNA and 9.5 μL of dH2O). PCR conditions were initial denaturation step of 95 C for 10 minutes, followed by 35 cycles of 95° C. for 30 sec for denaturation; as annealing step 55° C. for 30 sec; and extension at 72° C. for 90 sec, with a final extension of 72° C. for 10 minutes. […]

[3] = system: H460 lung cancer cells; experiment: RT-PCR of AREG RNA in H460 lung cancer cells after chemotherapy; assay type: cell-based; conditions: 48 hour treatment
Procedure: FIG. 5 illustrates analysis of AREG and beta actin RNA expression in H460 lung cancer cells with/without either a 48 hour CPT11 treatment or 5-Fu treatment. RNA levels were analyzed following 35 cycle of PCR to determine relative differences in expression between treated and untreated samples.
as §1, §2, §3

Structure (SMILES): CCc1c2c(nc3ccc(OC(=O)N4CCC(N5CCCCC5)CC4)cc13)-c1cc3c(c(=O)n1C2)COC(=O)[C@]3(O)CC [CPT-11, irinotecan]
- AREG mRNA expression (RT-PCR) [1]: up-regulation
- AREG RNA expression (RT-PCR) [2]: upregulation
- AREG RNA expression (RT-PCR, 35 cycles) [3]: enhanced expression of AREG
